Columns and labels:
[1] = Solid-state stability study at 40° C. and 75% relative humidity; format: physicochemical; conditions: 40° C./75% RH, sealed container; for Storage stability compared to pure cannabidiolic acid: up to 4 weeks
Method: The physical stability of the cannabidiolic acid cocrystals was examined with respect to solid form conversion or signs of decomposition or decarboxylation, and to compare the results with those for pure cannabidiolic acid. In order to assess the storage potential of the cocrystals within a reasonable timeframe standard accelerated storage conditions of 40° C. and 75% relative humidity were chosen. 50 mg each of the 1:1 cannabidiolic acid L-phenylalanine, 1:1 cannabidiolic acid vanillin, 1:1 cannabidiolic acid betaine, 1:1 cannabidiolic acid ethyl maltol, 1:1 cannabidiolic acid L-proline and cannabidiolic acid were separately placed in a sealed container at 40° C. and 75% relative humidity and monitored periodically over a 4-week time period. All samples that had not decomposed and remained as solids were analyzed by XRPD after this time to observe any potential form changes. At the start of the study, all cocrystal samples were white solids while the pure cannabidiolic acid was an off-white solid.

[2] = target: T1, 5-HT1A (Rattus norvegicus, UniProt P19327); conditions: higher affinity than CBD; Bolognini et al. 2012; cited from earlier work
T1 sequence (P19327 1-422): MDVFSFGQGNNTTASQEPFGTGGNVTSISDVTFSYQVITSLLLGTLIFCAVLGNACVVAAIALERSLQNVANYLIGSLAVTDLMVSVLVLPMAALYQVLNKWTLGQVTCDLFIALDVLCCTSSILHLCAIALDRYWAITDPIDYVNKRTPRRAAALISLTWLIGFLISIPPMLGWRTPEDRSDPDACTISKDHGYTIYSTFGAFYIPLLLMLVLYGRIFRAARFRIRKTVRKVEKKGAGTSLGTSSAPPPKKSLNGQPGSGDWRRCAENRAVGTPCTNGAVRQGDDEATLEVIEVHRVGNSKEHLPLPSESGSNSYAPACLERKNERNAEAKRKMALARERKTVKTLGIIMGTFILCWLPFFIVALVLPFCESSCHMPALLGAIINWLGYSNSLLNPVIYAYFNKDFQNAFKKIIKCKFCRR

[3] = WO2017025712; cited from earlier work
[4] = target: T2, COX-2 (Homo sapiens, UniProt P35354); conditions: Takeda 2008; cited from earlier work
T2 sequence (P35354 18-604): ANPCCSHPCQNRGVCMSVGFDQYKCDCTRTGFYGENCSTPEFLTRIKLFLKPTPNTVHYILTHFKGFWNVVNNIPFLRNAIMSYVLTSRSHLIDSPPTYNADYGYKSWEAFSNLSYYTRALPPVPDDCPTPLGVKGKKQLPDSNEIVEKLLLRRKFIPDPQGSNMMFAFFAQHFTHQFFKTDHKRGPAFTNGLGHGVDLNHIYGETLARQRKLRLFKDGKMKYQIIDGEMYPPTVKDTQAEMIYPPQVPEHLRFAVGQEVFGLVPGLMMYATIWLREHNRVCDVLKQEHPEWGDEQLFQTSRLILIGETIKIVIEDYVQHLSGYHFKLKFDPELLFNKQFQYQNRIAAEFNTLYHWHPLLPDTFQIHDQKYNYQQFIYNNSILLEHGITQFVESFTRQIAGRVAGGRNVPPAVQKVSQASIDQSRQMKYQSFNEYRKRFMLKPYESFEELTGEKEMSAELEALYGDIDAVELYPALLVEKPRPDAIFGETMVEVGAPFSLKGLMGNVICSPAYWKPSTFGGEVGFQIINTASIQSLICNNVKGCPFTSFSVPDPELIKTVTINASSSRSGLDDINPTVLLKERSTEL

[5] = test system: nausea and vomiting in a rat model; conditions: via 5-HT1A activation mechanism, Bolognini et al. 2012; cited from earlier work

C=C(C)[C@@H]1CCC(C)=C[C@H]1c1c(O)cc(CCCCC)c(C(=O)O)c1O.C[N+](C)(C)CC(=O)[O-] [1:1 CBDA Betaine Cocrystal, 1:1 cannabidiolic acid betaine cocrystal]
XRPD (solid form change) ([1]; 4 weeks): No change
XRPD (solid form change) ([1]; 4 weeks, listed as 1:1 cannabidiolic acid betaine): no solid form conversion or dissociation had occurred
Appearance ([1]; 4 weeks, white solid at start): No change
Appearance ([1]; 4 weeks, white solid at start, listed as 1:1 cannabidiolic acid betaine): remained unchanged as white solids
Storage stability compared to pure cannabidiolic acid [1]: significantly superior storage properties compared to pure CBDA

C=C(C)[C@@H]1CCC(C)=C[C@H]1c1c(O)cc(CCCCC)c(C(=O)O)c1O.N[C@@H](Cc1ccccc1)C(=O)O [1:1 CBDA Phenylalanine Cocrystal, 1:1 cannabidiolic acid L-phenylalanine cocrystal]
XRPD (solid form change) ([1]; 4 weeks): No change
XRPD (solid form change) ([1]; 4 weeks, listed as 1:1 cannabidiolic acid L-phenylalanine): no solid form conversion or dissociation had occurred
Appearance ([1]; 4 weeks, white solid at start): No change
Appearance ([1]; 4 weeks, white solid at start, listed as 1:1 cannabidiolic acid L-phenylalanine): remained unchanged as white solids
Storage stability compared to pure cannabidiolic acid [1]: significantly superior storage properties compared to pure CBDA

C=C(C)C1CCC(C)=CC1c1c(O)cc(CCCCC)c(C(=O)O)c1O.O=C(O)C1CCCN1 [1:1 CBDA L-Proline Cocrystal, 1:1 cannabidiolic acid L-proline cocrystal]
XRPD (solid form change) ([1]; 4 weeks): No change
XRPD (solid form change) ([1]; 4 weeks, listed as 1:1 cannabidiolic acid L-proline cocrystal): same crystalline structure
Appearance ([1]; 4 weeks, white solid at start): tan solid
Appearance ([1]; 4 weeks, white solid at start, listed as 1:1 cannabidiolic acid L-proline cocrystal): tanned colored solid

C=C(C)[C@@H]1CCC(C)=C[C@H]1c1c(O)cc(CCCCC)c(C(=O)O)c1O.COc1cc(C=O)ccc1O [1:1 CBDA Vanillin Cocrystal, 1:1 cannabidiolic acid vanillin cocrystal]
Time to conversion into dark brown liquid [1]: ≤ 3 weeks
Appearance ([1]; 3 weeks, white solid at start): Dark brown liquid
Storage stability compared to pure cannabidiolic acid [1]: more stable than pure cannabidiolic acid

C=C(C)[C@@H]1CCC(C)=C[C@H]1c1c(O)cc(CCCCC)c(C(=O)O)c1O.CCc1occc(=O)c1O [1:1 CBDA Ethyl Maltol Cocrystal, 1:1 cannabidiolic acid ethyl maltol cocrystal]
Time to conversion into dark brown liquid [1]: ≤ 2 weeks
Appearance ([1]; 2 weeks, white solid at start): Dark brown liquid
Storage stability compared to pure cannabidiolic acid [1]: more stable than pure cannabidiolic acid

C=C(C)[C@@H]1CCC(C)=C[C@H]1c1c(O)cc(CCCCC)c(C(=O)O)c1O [Pure CBDA, cannabidiolic acid]
Affinity for 5-HT1A relative to CBD [2]: 100 fold
Time to deliquescence to a liquid [1]: Within one hour
Appearance ([1]; 2 hours, off-white solid at start): Dark brown liquid
Appearance ([1]; 2 hours, off-white solid at start, listed as pure CBDA): liquid that within a further hour had turned dark brown in color
Efficacy in treating epilepsy versus CBD [3]: more effective than CBD
Inhibition of COX-2 activity [4]: selectively inhibit COX-2 activity
Inhibition of nausea and vomiting, potency versus CBD [5]: significantly greater potency than CBD
